Our source for the Ki and Kix values is ChEMBL document CHEMBL1124487, “Acid-sensitive latent inhibitors for proteolytic enzymes: synthesis and characterization” (J Med Chem, 1989).

For assay [1], the target named is T1, Papain (Carica papaya, UniProt P00784).
T1 sequence (P00784 whole entry): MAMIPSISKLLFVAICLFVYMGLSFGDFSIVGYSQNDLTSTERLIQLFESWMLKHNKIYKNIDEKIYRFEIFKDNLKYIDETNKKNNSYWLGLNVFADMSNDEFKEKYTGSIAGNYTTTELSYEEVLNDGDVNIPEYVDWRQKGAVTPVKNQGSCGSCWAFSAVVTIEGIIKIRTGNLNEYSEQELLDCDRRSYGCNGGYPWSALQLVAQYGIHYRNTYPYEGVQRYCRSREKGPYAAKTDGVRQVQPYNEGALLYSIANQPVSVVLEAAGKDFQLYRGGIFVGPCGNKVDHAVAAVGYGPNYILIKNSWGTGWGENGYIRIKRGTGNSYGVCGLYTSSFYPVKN
Briefly: Inhibition of papain-catalyzed hydrolysis of BzArg p-nitroanilide by compound at pH 7.

The target in assay [2] is T1, Papain. Briefly: Inhibition of papain-catalyzed hydrolysis of BzArg p-nitroanilide by compound at pH 5.
The target of assay [3] is T1, Papain. As to the kind of experiment: Inhibition of papain-catalyzed hydrolysis of BzArg p-nitroanilide by compound at pH 5.5.
Assay [4] addresses T2, Papain (Carica papaya) (UniProt P00784).
T2 sequence (whole entry): T1 sequence (P00784 whole entry)
Description: Initial rate of reaction between papain and BzArg p-nitro-anilide in the presence of 400 uM at pH 7

`CC(=O)N[C@@H](C)C(=O)N/N=C/CNC(=O)c1ccccc1`: the figures for the Ki in assay [1], in assay [2] and in assay [3] were 30 µM, 38 µM and 25 µM, respectively. In addition, the Kix in assay [4] was determined as 1 mM.
